In US11891360B2, “Glycosylated psilocybin derivatives and methods of using” (Enveric Biosciences Canada Inc., priority 2020, dated 2024):

How the values were obtained:
5-HT2A receptor = 5-HT2A receptor (Homo sapiens, UniProt P28223); test: Calcium mobilization (Fluo-8) assay in CHO-K1 cells stably expressing 5-HT2A (+5-HT2A); type: cell-based
Protocol: Briefly, vials with cells were removed from the liquid nitrogen and thawed quickly in 37° C. water bath.

[1] = tested on: CHO-K1/Galpha15 cells (−5-HT2A); test: Calcium mobilization (Fluo-8) assay in control cells lacking 5-HT2A (−5-HT2A); type: cell-based, Chinese Hamster; conditions: CHO-K1/Galpha15 control cells lacking 5-HT2A
Description: Cell lines for pharmacology assays. CHO-K1/Galpha15 (GenScript, M00257) (−5-HT2A) and CHO-K1/5-HT2A (GenScript, M00250) (+5-HT2A) cells lines were used in both toxicology/growth inhibition (MTT) and calcium release assays. Briefly, CHO-K1/Galpha15 is a control cell line that constitutively expresses Galpha15 which is a promiscuous Gq protein. It is engineered as a host cell, allowing transfected receptor(s) to signal through the Gq signal transduction pathway and mobilize intracellular calcium from the endoplasmic reticulum (ER). These control cells lack any transgene encoding 5-HT2A receptors, thus preventing calcium mobilization in response to 5-HT2A activation. Conversely, CHO-K1/5-HT2A cells stably express 5-HT2A receptor in the CHO-K1 host background. This design enables Gq-11 expressed in CHO-K1 cells to mobilize intracellular calcium changes when 5-HT2A receptors are activated by ligands.
Cell lines were maintained in Ham's F12 media plus 10% FBS in the presence of 100 ug/ml hygromycin for CHO-K1/Ga15 or 400 ug/ml G418 for CHO-K1/5-HT2A unless indicated otherwise for specific assays. Cell maintenance was carried out as recommended by the cell supplier. Briefly, vials with cells were removed from the liquid nitrogen and thawed quickly in 37° C. water bath. […]
Increase in cytosolic calcium concentration by 5-HT2A activation. Changes in intracellular calcium concentration due to the treatment with assay compounds was measured using Fluo-8 dye (Abcam, #ab112129) according to the manufacturer's instructions. […] Fluorescence (ex 490 nm/em 525 nm) obtained after the addition of molecules was expressed relative to values obtained before addition of the molecules (relative Fluo-8 fluorescence=Fmax/F0, where Fmax=maximum fluorescence and F0=baseline fluorescence). Fluorescence intensities were measured using a Spectramax ID3 plate reader (www.moleculardevices.com). Relative fluorescence (RFU) was plotted with respected to time (seconds) illustrating time-dependent calcium flux. […] The Example compound (Ill) was then evaluated.

Sequence of 5-HT2A receptor (P28223 whole entry): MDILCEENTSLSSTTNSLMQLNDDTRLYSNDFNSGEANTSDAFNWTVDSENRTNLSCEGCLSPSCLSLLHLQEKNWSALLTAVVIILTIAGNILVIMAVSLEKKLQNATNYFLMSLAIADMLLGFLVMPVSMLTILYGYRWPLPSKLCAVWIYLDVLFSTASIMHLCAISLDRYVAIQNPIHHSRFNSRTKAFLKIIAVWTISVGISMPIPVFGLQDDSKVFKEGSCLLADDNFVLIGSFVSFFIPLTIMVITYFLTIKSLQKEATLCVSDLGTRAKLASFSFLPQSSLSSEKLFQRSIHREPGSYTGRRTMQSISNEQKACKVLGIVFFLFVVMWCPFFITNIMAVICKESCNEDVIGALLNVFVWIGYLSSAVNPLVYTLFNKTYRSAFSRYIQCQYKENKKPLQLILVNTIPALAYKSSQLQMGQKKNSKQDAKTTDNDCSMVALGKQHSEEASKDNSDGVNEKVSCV

Row | Compound | dose dependence of calcium flux response (5-HT2A receptor; +5-HT2A cells, 0.001-100 μM) | calcium flux response in −5-HT2A cells [1] | time to peak of intracellular calcium flux (5-HT2A receptor; +5-HT2A cells, 0.001-100 μM, relative Fluo-8 fluorescence vs time) | EC50 (5-HT2A receptor; CHO-K1/5-HT2A (+5-HT2A) cells, four parameter logistic curve fitting, GraphPad Prism, read-out: EC50 of relative Fluo-8 fluorescence (calcium mobilization))
1 | CN(C)CCc1c[nH]c2cccc(O)c12 [psilocin, reference compound] | response increased with dosage | did not exhibit a response | – | –
2 | NCCc1c[nH]c2cccc(O[C@@H]3OC(CO)[C@H](O)C(O)C3O)c12 (stereo partly drawn) [V, 4-O-β-D-galactopyranosyltryptamine] | response increased with dosage | did not exhibit a response | under 60 seconds | –
3 | CN(C)CCc1c[nH]c2cccc(O[C@@H]3OC(CO)[C@H](O)C(O)C3O)c12 (stereo partly drawn) [VI, N,N-dimethyl-4-O-β-D-galactopyranosyltryptamine] | – | – | – | 3.81 µM
4 | NCCc1c[nH]c2cccc(O[C@@H]3OC(CO)[C@@H](O)C(O)C3O)c12 (stereo partly drawn) [III, 4-O-β-D-glucopyranosyltryptamine] | response increased with dosage | did not exhibit a response | – | –
